Structures are written as SMILES. Values joined by “and” are separate entries in the source; they are usually repeats but may differ in a detail not shown here. Identical values can stand only once.

For the first data set, the system named is Nrf2. In words: Nrf2 reporter activity by Tg(gstp1:GFP) fluorescence in transgenic zebrafish embryos. In kind it is in vivo. To be noted: olfactory epithelia, 24-hour treatment from 1 dpf to 2 dpf, 5 μM (FIG. 2 legends), ratio to DMSO control, mean ± SD, at least 10 embryos. As to the method: Zebrafish AB transgenic strains Tg(gstp1:GFP) were maintained in a Pentair Aquatic Ecosystem (Apopka, Fla., United States of America) fish housing unit with 14 h light/10 h dark cycle (see Tsujita, T., Li, L., Nakajima, H., Iwamoto, N., Nakajima-Takagi, Y., Ohashi, K., Kawakami, K., Kumagai, Y., Freeman, B. A., Yamamoto, M., and Kobayashi, M. (2011) “Nitro-fatty acids and cyclopentenone prostaglandins share strategies to activate the Keap1-Nrf2 system: a study using green fluorescent protein transgenic zebrafish.” Genes Cells 16, 46-57). The fish embryos were maintained at 28.5° C. in 0.3× Danieau's solution (19.3 mM NaCl, 0.23 mM KCl, 0.13 mM MgSO4, 0.2 mM Ca(NO3)2, 1.7 mM HEPES, pH 7.0) containing 30 μg/ml phenylthiourea (PTU) to inhibit pigmentation. Tg(gstp1:GFP) cross with AB wild-type strain fluorescence embryos were used for the experiment. Zebrafish embryos were washed, dechorionated and anaesthetized before observations, and fluorescence imaging for analysis.
Transgenic zebrafish embryos at 1 day-post-fertilization (dpf) were dechorionated and placed in Petri dishes containing different chemicals diluted in 0.3× Danieau's solution containing PTU. The chemical stock was dissolved in DMSO at 5 mM concentration.
An Olympus MVX10 Fluorescence Macroscope (Olympus, Center Valley, Pa., United States of America) equipped with a Hamamatsu C9300-221 high-speed digital CCD camera (Hamamatsu City, Japan) was used for fluorescence microscopy. Tg(gstp1:GFP) fluorescent embryos were anaesthetized in tricaine and imaged at 2 dpf. MetaMorph Basic software (Olympus, Center Valley, Pa., United States of America) was used for image acquisition and analysis.
The fluorescence intensity of the olfactory neural epithelia was quantitated using MetaMorph Basic software. In brief, GFP expression in the olfactory regions of Tg(gstp1:GFP) embryos treated with various chemicals was measured after 24-hour treatment from 1 dpf to 2 dpf. The GFP induction was detectable by fluorescence signal at the area of the olfactory epithelia in the anterior of the head region, the intensity was measured using an area of a circle of 60 pixel diameter of the fluorescence olfactory epithelia subtracted by a background non-fluorescence area next to the zebrafish embryo. Both the left and right olfactory epithelia were measured to give an average fluorescence value. The values are an average of measurements from at least 10 embryos.
As to `CCCCCC(CC(=O)CCc1ccc(O)c(OC)c1)SCC(N)C(=O)O` (stereo not shown) [Compound 6], the “Ratio/CTL, Tg(gstp1:GFP) fluorescence signal (times higher than vehicle)” value (“Ratio/CTL … (times higher than vehicle)” for short) turned out to be 1.06 ± 0.20.
Regarding `CCCCC[C@H](O)CC(=O)CCc1ccc(O)c(OC)c1` [Compound 11, [6]-gingerol, reference compound], the “Ratio/CTL … (times higher than vehicle)” value is 1.87 and 1.87 ± 0.51.
For the compound `CCCCCC(CC(=O)CCc1ccc(O)c(OC)c1)SCC(NC(C)=O)C(=O)O` (stereo not shown) [Compound 7], the “Ratio/CTL … (times higher than vehicle)” value is listed as 1.04 ± 0.05.
For the compound `CCCCC/C=C/C(=O)/C=C/c1cccc(C(F)(F)F)c1` [Compound 22], the “Ratio/CTL … (times higher than vehicle)” value was 1.28 and 1.28 ± 0.10.
For `CCCCCC(CC(O)CCc1ccc(O)c(OC)c1)SCC(NC(C)=O)C(=O)O` (stereo not shown) [Compound 16], the “Ratio/CTL … (times higher than vehicle)” value was 0.78 ± 0.12.
Still for that read-out and setting: in the case of `CCCCCC=CC(O)CCc1ccc(O)c(OC)c1` (stereo not shown) [Compound 4] it was 1.13 and 1.13 ± 0.21; in that of `CCCCCC(CC(O)CCc1ccc(O)c(OC)c1)SC` (stereo not shown) [Compound 17], 0.72 ± 0.14.
For the compound `CCCCC/C=C/C(=O)/C=C/c1cccc(C(F)(F)F)c1F` [Compound 23], the “Ratio/CTL … (times higher than vehicle)” value was 1.63 and 1.63 ± 0.17.
Consider `CCCCC/C=C/C(=O)/C=C/c1cc(OC)c(O)c(C(F)(F)F)c1` [Compound 21], for which the “Ratio/CTL … (times higher than vehicle)” value was 2.18 and 2.18 ± 0.53.
Same read-out and setting: under `CCCCCC(CC(=O)CCc1ccc(O)c(OC)c1)SC` (stereo not shown) [Compound 8] stands 1.16 ± 0.47; under `CCCCC/C=C/C(=O)/C=C/c1cc(O)c(O)c(OC)c1` [Compound 20], 1.26 and 1.26 ± 0.14; under `CCCCCCCC(=O)CCc1ccc(O)c(OC)c1` [Compound 5], 1.27 and 1.27 ± 0.29.
In the case of `CCCCCCC[C@H](O)CC(=O)CCc1ccc(O)c(OC)c1` [Compound 12, reference compound], the “Ratio/CTL … (times higher than vehicle)” value is 1.65 and 1.65 ± 0.29.
On to `CCCCCCCCC/C=C/C(=O)CCc1ccc(O)c(OC)c1` [Compound 3, reference compound], for which the “Ratio/CTL … (times higher than vehicle)” value was 1.53 ± 0.53.
As to `CCCCCCCC(=O)/C=C/c1ccc(O)c(OC)c1` [Compound 19], the “Ratio/CTL … (times higher than vehicle)” value was 3.29 and 3.29 ± 0.35.
Turning to `CCCCC/C=C/C(=O)CCc1ccc(O)c(OC)c1` [Compound 1, [6]-shogaol, reference compound], the “Ratio/CTL … (times higher than vehicle)” value worked out at 2.40 ± 0.54.
For the compound `CCCCCC(CC(=O)CCc1ccc(O)c(OC)c1)OC` (stereo not shown) [Compound 10], the “Ratio/CTL … (times higher than vehicle)” value worked out at 0.96 ± 0.24.
Still for that read-out and setting: under `CCCCCC(CC(O)CCc1ccc(O)c(OC)c1)SCC(N)C(=O)O` (stereo not shown) [Compound 15] stands 1.08 ± 0.65; under `CCCCCCCCC[C@H](O)CC(=O)CCc1ccc(O)c(OC)c1` [Compound 13, reference compound], 1.29 and 1.29 ± 0.40; under `CCCCC/C=C/C(=O)/C=C/c1ccccc1C(F)(F)F` [Compound 24], 1.55 and 1.55 ± 0.67.
On the same count and under the same terms, in the case of `CCCCCCC/C=C/C(=O)CCc1ccc(O)c(OC)c1` [Compound 2, reference compound] it was 1.67 ± 0.55.

Staying with this data set, now noted: olfactory epithelia, 24-hour treatment from 1 dpf to 2 dpf, 5 μM (FIG. 2 legends), ratio to DMSO control, mean ± SD, at least 10 embryos; listed as 6S.
Consider `CCCCC/C=C/C(=O)CCc1ccc(O)c(OC)c1` [Compound 1, [6]-shogaol, reference compound], for which the “Ratio/CTL … (times higher than vehicle)” value is 2.40.

Staying with this data set, now noted: olfactory epithelia, 24-hour treatment from 1 dpf to 2 dpf, 5 μM (FIG. 2 legends), ratio to DMSO control, mean ± SD, at least 10 embryos; listed as 8S.
As to `CCCCCCC/C=C/C(=O)CCc1ccc(O)c(OC)c1` [Compound 2, reference compound], the “Ratio/CTL … (times higher than vehicle)” value is reported as 1.67.

The data set is the same for the next values; noted with them: olfactory epithelia, 24-hour treatment from 1 dpf to 2 dpf, 5 μM (FIG. 2 legends), ratio to DMSO control, mean ± SD, at least 10 embryos; listed as 10S.
`CCCCCCCCC/C=C/C(=O)CCc1ccc(O)c(OC)c1` [Compound 3, reference compound]: the “Ratio/CTL … (times higher than vehicle)” value amounted to 1.53.

Tested on in another data set: not listed separately
The experiment in a line: Cysteine conjugates in mouse urine after oral gavage (LC/MS). In kind it is in vivo. To be noted: oral gavage 200 mg/kg, urine collected in 24 h. As to the method:
LC/MS analysis was carried out with a Thermo-Finnigan Spectra System, which consisted of an Accela high speed MS pump, an Accela refrigerated autosampler, and an LCQ Fleet ion trap mass detector (Thermo Electron, San Jose, Calif., United States of America) incorporated with an electrospray ionization (ESI) interface. A Gemini-NX C18 column (150 mm×4.6 mm i.d., 5 μm; Phenomenex, Torrance, Calif., United States of America) was used for separation at a flow rate of 0.3 mL/min. The column was eluted with 100% A (5% aqueous methanol with 0.2% formic acid) for 1 min, followed by linear increases in B (95% aqueous methanol with 0.2% formic acid) to 55% from 1 to 4 min, to 85% from 4 to 25 min, then to 100% B from 25 to 30 min, and then with 100% B from 30 to 35 min. The column was then re-equilibrated with 100% A for 5 min. The LC eluent was introduced into the ESI interface. The positive ion polarity mode was set for the ESI source with the voltage on the ESI interface maintained at approximately 4.6 kV. Nitrogen gas was used as the sheath gas and auxiliary gas. […] The mass range was measured from 100 to 800 m/z. […]
Enzymatic deconjugation of mouse urine was performed as described previously with slight modifications. […] The resulting suspension was centrifuged at 17,000 g for 5 min, and 10 μL of supernatant was analyzed directly by LC/MS.
Consider `CCCCC/C=C/C(=O)/C=C/c1ccc(O)c(OC)c1` [Compound 18], for which the “Cysteine conjugates (metabolites) detected in mouse urine” value is given as “conjugate 35 was predominantly present”.

Tested on in a further data set: not listed separately
In words: Biotransformation of xenobiotics in zebrafish embryos (LC/MS). In kind it is in vivo. To be noted: 5 μM in incubation medium, 8 hpf to 24 hpf. As to the method: Fifty zebrafish embryos at the 8 hour-post-fertilization (hpf) stage were incubated at 28.5° C. in 0.3× Danieau's solution (19.3 mM NaCl, 0.23 mM KCl, 0.13 mM MgSO4, 0.2 mM Ca(NO3)2, 1.7 mM HEPES, pH 7.0) with or without 5 μM 18 and 25-27, respectively. At 24 hpf, embryos were dechorionated manually and the chorions were carefully removed one by one from the culture medium. The zebrafish embryos were harvested and kept at −80° C. till analyzed by LC/MS.
200 μL Sodium acetate buffer solution (pH 5.0) was added to 50 zebrafish embryos. Samples were homogenized for 90 s by an Omni Bead Ruptor Homogenizer (Kennesaw, Ga., United States of America). 10 μL 10% ascorbic acid and 300 μL sodium acetate buffer were added to the homogenates. The mixture was incubated in the presence of β-glucuronidase (250 U) and sulfatase (3 U) at 37° C. for 45 min, and then 600 μL MeOH with 1% acetic acid was added. The resulting mixture was vortexed for 30 s and then centrifuged at 17000 g for 10 min. The supernatant was removed and evaporated under a gentle stream of nitrogen. The residue was reconstituted in 150 μL 90% MeOH with 0.2% acetic acid (AA), and 10 μL was analyzed directly by LC/MS.
LC/MS analysis was carried out with a Thermo-Finnigan Spectra System, which consisted of an Accela high speed MS pump, an Accela refrigerated autosampler, and an LCQ Fleet ion trap mass detector (Thermo Electron, San Jose, Calif., United States of America) incorporated with an electrospray ionization (ESI) interface. A Gemini-NX C18 column (150 mm×4.6 mm i.d., 5 μm; Phenomenex, Torrance, Calif., United States of America) was used for separation at a flow rate of 0.3 mL/min. The column was eluted with 100% A (5% aqueous methanol with 0.2% formic acid) for 1 min, followed by linear increases in B (95% aqueous methanol with 0.2% formic acid) to 55% from 1 to 4 min, to 85% from 4 to 25 min, then to 100% B from 25 to 30 min, and then with 100% B from 30 to 35 min. The column was then re-equilibrated with 100% A for 5 min. The LC eluent was introduced into the ESI interface. The positive ion polarity mode was set for the ESI source with the voltage on the ESI interface maintained at approximately 4.6 kV. Nitrogen gas was used as the sheath gas and auxiliary gas. Optimized source parameters, including capillary temperature (260° C.), sheath gas flow rate (31 arbitrary units), auxiliary gas flow rate (16 units), tube lens (34 V), and capillary voltage 9 V, were tuned using authentic samples. The collision-induced dissociation (CID) was conducted with an isolation width 2 Da and normalized collision energy of 35 for MS^2. The mass range was measured from 100 to 800 m/z. Data acquisition was performed with Xcalibur version 2.0 (Thermo Electron, San Jose, Calif., United States of America).
Consider `CCCCC/C=C/C(=O)/C=C/c1ccc(O)c(O)c1` [Compound 26], for which the “Cysteine conjugates (metabolites) detected in zebrafish embryos” value (from here on “Cysteine conjugates … in zebrafish embryos”) was “Three conjugates 37, 37b, and 38”.
In the case of `CCCCC/C=C/C(=O)/C=C/c1ccc(O)c(OC)c1` [Compound 18], the “Cysteine conjugates … in zebrafish embryos” value was “conjugate 35 was predominantly present”.
`CCCCCCCC(=O)CCc1ccc(O)c(O)c1` [Compound 25]: the “Cysteine conjugates … in zebrafish embryos” value was “conjugates 37 and 37b were exclusively identified”.

These data come from patent US10363230B2, “6-shogaol derivatives and activities thereof” (North Carolina Agricultural and Technical State University, priority 2017, dated 2019).
